Test results as given in US11045482B2, “Use of glucocorticoid receptor modulators in the treatment of catecholamine-secreting tumors” (Corcept Therapeutics, Inc., priority 2017, dated 2021).

Experiments:
PNMT mRNA = conditions: intact rats; cited from earlier work
[1] = tested on: metastatic pheochromocytoma associated with ectopic ACTH secretion; assay: Case of a person with metastatic pheochromocytoma and Cushing syndrome given mifepristone (Example 1); type: in vivo, human; conditions: despite high dose of atenolol and phenoxybenzamine, before mifepristone
Method: A person with metastatic pheochromocytoma associated with ectopic ACTH secretion unresponsive to conventional chemotherapy with CVD (cyclophosphamide, vincristine and dacarbazine) and Sunitinib (tyrosine kinase inhibitors) was enrolled in a phase 2 study with a somatostatin analog. […] At the same time the diagnosis of Cushing syndrome was made and 300 mg of Mifepristone was added to their regimen and the dose was further increased to 600 mg daily two weeks later. […] The plasma epinephrine level after 2 weeks of therapy with mifepristone was decreased by 50%, and the plasma metanephrine level was decreased by 25% after 9 weeks of therapy.

[2] = tested on: pheochromocytoma crisis (PC); conditions: cited from earlier work
[3] = tested on: PNMT mRNA and enzyme expression; conditions: rats, depletion of corticosteroids by hypophysectomy; cited from earlier work

For `CC#CC1(O)CC[C@H]2[C@@H]3C=C(C)C4=CC(=O)C=C[C@]4(C)[C@H]3C(O)C[C@@]21C` (stereo partly drawn) [RU28362, 11,17-dihydroxy-6-methyl-17-(1-propynyl)androsta-1,4,6-triene-3-one], which “PNMT mRNA levels” value (PNMT mRNA) is on record?
The value was “rise markedly”.

For `CC(C)NCC(O)COc1ccc(CC(N)=O)cc1` (stereo not drawn) [atenolol], which “catecholamine excess symptoms (palpitations, tremors and panic attacks)” value [1] is on record?
The value was “continued to experience significant catecholamine excess symptoms”.

With `C[C@@H]1C[C@H]2[C@@H]3CCC4=CC(=O)C=C[C@]4(C)[C@@]3(F)[C@@H](O)C[C@]2(C)[C@@]1(O)C(=O)CO` [dexamethasone] as the compound, how does the pheochromocytoma crisis cases ([2]; 1 mg given as a DST in patients with pheochromocytoma) read?
Its pheochromocytoma crisis cases is “no cases have been reported”.

And the pheochromocytoma crisis ([2]; larger doses, as low as 2 mg)?
Its pheochromocytoma crisis is “may trigger a PC”.

Which “catecholamine excess symptoms (palpitations, tremors and panic attacks)” value [1] does the source give for `CC(COc1ccccc1)N(CCCl)Cc1ccccc1` (stereo not drawn) [phenoxybenzamine] here?
The value was “continued to experience significant catecholamine excess symptoms”.

With “adrenocorticotropin: stimulates endogenous glucocorticoid production (SYSMEHFRWGKPVGKKRRPVKVYPNGAEDESAEAFPLEF; Corticotropin; UniProt P01189 138-176, looked up)” as the compound, how does the “decrease of PNMT mRNA and enzyme expression after hypophysectomy” value [3] read?
The value was “reversed”.
